From ChEMBL document CHEMBL1146908, “Synthesis of 16-mercaptohexadecylphosphocholine, a miltefosine analog with leishmanicidal activity” (2006) come the findings set out here.

The structures appear in SMILES notation. Bounds are passed on as bounds.

Holding throughout (format): functional
Common to all, as to settings: read-out: LD50 (the source's name)

Assay [1] concerns Leishmania mexicana. Description: Antileishmanial activity against Leishmania pifanoi axenic amastigotes by MTT assay. (In general: Tetrazolium assays rely on reduction of a dye to a coloured formazan, in cell work by metabolically active cells.)
The test system of assay [2] is Leishmania mexicana. Description: Antileishmanial activity against miltefosine-resistant Leishmania pifanoi axenic amastigotes by MTT assay.
The subject of assay [3] is Leishmania donovani. Briefly: Antileishmanial activity against Leishmania donovani promastigotes by MTT assay.
In assay [4] the test system is Leishmania donovani. Description: Antileishmanial activity against miltefosine-resistant Leishmania donovani promastigotes by MTT assay.

Regarding `CCCCCCCCCCCCCCCCOP(=O)([O-])OCC[N+](C)(C)C` [MILTEFOSINE], the LC50 with Leishmania mexicana [1] was 5 µM; with Leishmania mexicana [2], greater than 50 µM; with Leishmania donovani [3], 5.3 µM; with Leishmania donovani [4] it was greater than 50 µM.

For `C[N+](C)(C)CCOP(=O)([O-])OCCCCCCCCCCCCCCCCS`, the LC50 in the assay with Leishmania mexicana [1] was 5.5 µM; with Leishmania mexicana [2], greater than 50 µM; in the assay with Leishmania donovani [3], 5.1 µM; with Leishmania donovani [4] it was greater than 50 µM.
